Source: publication PMC3792974, “Novel Inhibitor Cystine Knot Peptides from Momordica charantia” (PLoS ONE, 2013)
“Also recorded” adds a separate entry of the source. No end group written: not given here.

Assays:
MDA-MB-231 = assay: Cytotoxicity MTT assay, MDA-MB-231; format: cell-based; conditions: MDA-MB-231 human breast cancer cells; 0.1 µM to 100 µM, duplicate, 5 h, 37°C; MTT 1 h, absorbance 600 nm; positive control Taxol
Description: (§1) The cytotoxicity of the peptides on breast cancer cells (MDA-MB-231) and non-cancerous human cells (HFF-1) was measured using a standard MTT (3-(4,5-dimethylthiazol-2-yl)-2,5-diphenyltetrazolium bromide, Sigma-Aldrich) assay. Cells were seeded in a 96-well flat-bottomed plate at a concentration of 5.0×10^4 cells/cm^2 in DMEM in 10% FBS, or DMEM in 15% FBS, and incubated at 37°C in an atmosphere of 5% CO2 in air. After 24 h, peptides were added in duplicate at the concentrations ranging from 0.1 µM to 100 µM to make up a final volume of 100 µL in each well and then incubated for 5 h. MTT solution (10 µL) in PBS (5 mg/mL) was added to each well and maintained for 1 h. Media was removed, and formazan crystals were resuspended in 100 µL of DMSO. Absorbance was then read at 600 nm. Taxol was used as the positive control.

[1] = test system: Plasmodium falciparum (FCR-3 strain); assay: Antimalarial assay; format: cell-based; conditions: FCR-3 strain in human RBCs (type A), 5% hematocrit, 0.3% parasitemia, GIT medium, 37°C, 72 h; various concentrations, duplicate; Giemsa smears, microscopy; positive control artemisinin
Description: Plasmodium falciparum (FCR-3 strain) was maintained in vitro at 37°C in GIT medium containing human red blood cells (RBCs, type A) at 5% hematocrit in 24-well plates which were put in a CO2 incubator (5% CO2, 5% O2 and 90% N2) at 37°C [41]. Peptides were added in duplicate in distilled water or 0.25 M phosphoric acid and prepared in various concentrations. 10 µL of this solution was added to individual cells of the plates. Erythrocytes with 0.3% parasitemia were added to the cells of the above plates containing 990 µL of culture medium. The plates were incubated at 37°C for 72 h in the CO2 incubator. To test the antimalarial activity of peptides, thin smears were prepared from each culture and stained with Giemsa. Erythrocytes were examined under microscopy. Artemisinin was used as the positive control. Drug-free control cultures were assayed simultaneously, [43].

[2] = test system: bovine pancreatic trypsin; assay: Trypsin inhibitory assay; format: biochemical; conditions: substrate L-BAPNA, 50 mM Tris/20 mM CaCl2 pH 8.2, 10 min, room temperature; four concentrations, initial 750 µM or 1.5 mM with 10-fold dilutions; triplicate; absorbance 410 nm; positive control MCoTI-II
Description: A stock solution of bovine pancreatic trypsin at 4.5 mg/mL in 1 mM HCl was prepared and stored on ice. Firstly, the trypsin stock was diluted to 0.45 mg/mL in 50 mM Tris/20 mM CaCl2 (pH 8.2) buffer. Next, the substrate was prepared by dissolving 0.435 mg/mL L-BAPNA (Nα-benzoyl-L-arginine 4-nitroanilide hydrochloride, Sigma-Aldrich) in 1% DMSO/99% 50 mM Tris/20 mM CaCl2 buffer (pH 8.2). Four different peptide concentrations were tested starting from initial concentrations of 750 µM or 1.5 mM with 10-fold dilutions. The reaction mixture was prepared by dispensing 15 µL of 50 mM Tris/20 mM CaCl2 (pH 8.2) buffer, 5 µL of 0.45 mg/mL trypsin and followed by 5 µL of the tested peptide into each well of a 96-well plate in triplicate. A control without the tested peptide was used to measure 100% trypsin activity. Subsequently, 125 µL of 0.435 mg/mL substrate was added to the plate and incubated for 10 min at room temperature. The reaction was stopped by adding 25 µL of 30% acetic acid. Absorbance was measured at 410 nm using a Powerwave XS plate reader (Bio-Tek). Trypsin inhibition was calculated from the absorbance in the presence of the tested peptide as a percent of absorbance of the uninhibited trypsin [39]. MCoTI-II was used as the positive control.

HFF-1 = assay: Cytotoxicity MTT assay, HFF-1; format: cell-based; conditions: HFF-1 non-cancerous human cells; 0.1 µM to 100 µM, duplicate, 5 h, 37°C; MTT 1 h, absorbance 600 nm; positive control Taxol
Description: as §1

Sequence	cytotoxic activity (MDA-MB-231)	antimalarial activity [1]	trypsin inhibitory activity [2]	cytotoxic activity (HFF-1)
GCAGKACNLLGLTCDAGCFCRPDGVGIVAGVCV (disulfide (positions not given here)) [MCh-2, PDB 2M2R]	not active	not active	not active; also recorded: not trypsin inhibitors	not active
GCAGKSCNILGSDPCDAGCFCLPVGIVAGVCV (disulfide (positions not given here)) [MCh-1, PDB 2M2Q]	not active	not active	not active; also recorded: not trypsin inhibitors	not active
